Experimental data taken from paper PMC7126891 (Bioorganic & Medicinal Chemistry, 2013).
Read-outs that look alike come from different tables or passages of the source.

How the values were obtained:
SARS-CoV 3CL^pro [1] = target: T1, SARS-CoV 3CL^pro (Severe acute respiratory syndrome coronavirus, UniProt P0C6X7); type: biochemical
SARS-CoV 3CL^pro [2] = target: T1, SARS-CoV 3CL^pro
SARS-CoV 3CL^pro [3] = target: T1, SARS-CoV 3CL^pro; experiment: biochemical; type: binding

SMILES | Cell-free trans-cleavage inhibition type (SARS-CoV 3CL^pro [1]) | SI (CC50/IC50) (SARS-CoV 3CL^pro [2]) | further results
Oc1cc(O)c(Oc2cc(O)cc(O)c2Oc2cc(O)cc(O)c2-c2c(O)cc(O)cc2O)c(O)c1 [Compound 7, fucodiphloroethol G] | Competitive (63.5 ± 7.1) | – | SI (CC50/IC50) (SARS-CoV 3CL^pro [2]; African green monkey): >1.1
Oc1cc(O)cc(Oc2c(O)cc(O)c3c2Oc2c(O)cc(Oc4c(O)cc(O)cc4O)cc2O3)c1 [Compound 6, 7-phloroeckol] | Competitive (19.3 ± 1.4) | >1.8 | –
Oc1cc(O)cc(Oc2c(O)cc(O)c3c2Oc2c(O)cc4oc5c(Oc6cc(O)cc(O)c6)c(O)cc(O)c5c4c2O3)c1 [Compound 9, phlorofucofuroeckol A] | Competitive (10.6 ± 1.0) | >1.1 | –
Oc1cc(O)c2oc3cc(O)c4oc5cc(O)cc(O)c5oc4c3oc2c1 [Compound 4, dioxinodehydroeckol] | – | >1.4 | –
Oc1cc(O)cc(Oc2c(O)cc(O)c3c2Oc2c(O)cc(Oc4c(O)cc(Oc5c(O)cc(O)c6c5Oc5c(O)cc(O)cc5O6)cc4O)cc2O3)c1 [Compound 8, dieckol] | Competitive (2.4 ± 0.2) | >2.9 | kon (SARS-CoV 3CL^pro [3]; read-out: association rate constant kon): 7.35e+07 M⁻¹ s⁻¹; koff (SARS-CoV 3CL^pro [3]; read-out: dissociation rate constant koff): 0.000843 s⁻¹
Oc1cc(O)cc(Oc2c(O)cc(O)c3c2Oc2c(O)cc(O)cc2O3)c1 [Compound 3, eckol] | Competitive (8.2 ± 0.9) | <1 | fold higher activity than triphloretol A (2) (SARS-CoV 3CL^pro [1]): 20 fold
Oc1cc(O)cc(Oc2c(Oc3c(O)cc(O)cc3O)cc(O)c3c2Oc2c(O)cc(O)cc2O3)c1 [Compound 5, 2-phloroeckol] | Competitive (24.0 ± 1.5) | >1.8 | fold increase of inhibitory activity versus 7-phloroeckol (6) (SARS-CoV 3CL^pro [1]): ~3 fold
